Experimental data from US20190255175A1, “ACTIVATION OF TRPA1+ NOCICEPTORS IN THE VAGUS NERVE ATTENUATES SYSTEMIC INFLAMMATION” (THE FEINSTEIN INSTITUTE FOR MEDICAL RESEARCH, priority 2018, published 2019).

Columns and labels:
nodose ganglion neurons = test: Whole-cell patch clamp recordings of nodose ganglion neurons; format: cell-based, mice; conditions: nodose neurons held at −65 mV; IL-1β 20 μg/ml
Procedure: Whole-cell patch clamp recordings were made with glass pipettes pulled on a P-97 electrode puller (Sutter Instruments, Novato, Calif.). The resistance of the pipettes was 2-4 MΩ when filled with an intracellular solution (in mM: CsCl 140, HEPES 10, EGTA 5, Mg-ATP 2, NaGTP 0.3, MgCl2 2, Phosphocreatine 10, pH 7.25 adjusted with CsOH). Cells were superfused at a rate of 2 ml/min with an external bath solution containing the following (in mM): 150 NaCl, 2.5 KCl, 10 HEPES, 10 D-glucose, 2 CaCl2, and 1 MgCl2, pH 7.3-7.4. Experiments were performed at room temperature (22-24° C.). Currents from neurons were monitored with an Multiclamp 700B amplifier (Molecular Devices, Union City, Calif.), acquired through Digidata 1550B (Molecular Devices) onto a computer using pClamp 11 software (Molecular Devices). Data were analyzed using Clampfit 11 (Molecular Devices). All chemicals used for electrophysiological recordings were purchased from Sigma. All drugs and solutions were made fresh from drug stock solutions.
Using patch clamp recordings, IL-1β responses were recorded in nodose ganglion neurons. Application of IL-1β (20 μg/ml) induced calcium influx as indicated by increase of fluorescence in 6 out of 332 (1.8%) sensory nodose ganglion neurons from VGlut2-GCaMP3 mice. Next, whole-cell patch clamp recordings were carried out on the same neurons that responded to IL-1β in calcium influx analysis. When the membrane potential was held at −65 mV, bath application of IL-1β (20 μg/ml) produced slow inward currents in 4 out of 332 (1.2%) nodose neurons. The amplitude of IL-1β induced currents are 108±23 pA (n=4). […] In current-clamp mode, IL-1β reduced action potential threshold from −25±2 mV to −31±3 mV (n=4). […] To further determine the potential interaction of TRPA1 with IL-1β, nodose ganglion neurons from TRPA1 KO mice were examined in a culture system. […] IL1R1 co-localizes with TRPA1 on nodose ganglion neurons, as was determined using immunohistochemical staining.

[1] = tested on: TRPA1+ fibers of the vagus nerve; test: Optovin applied to the vagus nerve with 405 nm optical stimulation, followed by LPS endotoxemia; serum TNF; format: in vivo, mice; conditions: TRPA1 KO mice; optovin + 405 nm light vs no light; LPS 8 mg/kg
Procedure: (§1) FIG. 1A-1C. Stimulation of sensory TRPA1+ vagus fibers attenuates serum TNF levels in endotoxemic mice. A) Wild type mice were treated with optovin directly to the vagus nerve, followed by exposure to no light (n=9) or 405 nm light (n=10). Mice were also subjected to a proximal vagotomy (n=12) cutting off afferent signaling to the brain. These mice were also treated with optovin and stimulated with 405 nm light. B) TRPA1 KO mice were treated with optovin directly to the vagus nerve. The mice were then treated with no light (n=9) or 405 nm light (n=8). C) α7 KO mice were treated with optovin directly to the vagus nerve. The mice were then treated with no light (n=10) or 405 nm light (n=12). Two asterisks indicate p<0.01.
(§2) Optical stimulation was generated by Thor Labs LED driver DC4100, with a 405 nm LED model M405L3 (Newton, N.J.). Sham mice underwent surgical control up to the point of identifying the cervical vagus nerve, without isolating it from the bundle. In both conditions 2 μl of optovin was applied directly on the nerve for 2 minutes prior to stimulation. Sham animals received no light applied to the nerve. The stimulated group received 405 nm light 1000 mA, 10 hz, with a 10% duty cycle for 5 minutes with an approximate power of 80-85 μW. Animals then recovered for 2 hours and were administered LPS (8 mg/kg) via intraperitoneal (ip) injection. Mice were euthanized 1.5 hours after LPS administration, with serum collected.
(§3) All vagotomized animas had their vagus nerve isolated. Prior to the vagotomy a 6.0 suture was tied around the vagus nerve. The nerve was then cut proximally or above (blocking left vagus nerve signaling to the brain while signaling to the periphery remained intact) to where 2 μl of optovin was to be added. All mice were stimulated using the same parameters as previously indicated. Animals then recovered for 2 hours and were administered LPS (8 mg/kg) via intraperitoneal (ip) injection. Mice were euthanized 1.5 hours after LPS administration, with serum collected.
(§4) Vagus nerve stimulation has been used as a treatment for peripheral inflammation in both rodents and humans^18-21. TRPA1 is an ion channel that has been indicated in neural sensing of inflammation within the skin and lungs 22-24. To determine TRPA1's role in the inflammatory reflex, photochemical stimulation of TRPA1+ fibers of the vagus nerve was carried out using a molecule called optovin. Optovin selectively binds to TRPA1 making it photoactive to 405 nm light^25. To directly stimulate the TRPA1+ vagus nerve fibers, optovin was applied directly to nerve, with one group unstimulated and one group stimulated with the 405 nm light for 5 minutes with LPS (8 mg/kg) administer 2 hours later. […]

[2] = biological target: T1, TRPA1+ fibers of the vagus nerve (Mus musculus, UniProt Q8BLA8); test: as above; format: in vivo, mice
T1 construct: optovin was applied directly to nerve; from tissue; also TRPA1 KO and α7 nAChR KO groups
T1 sequence (Q8BLA8 whole entry): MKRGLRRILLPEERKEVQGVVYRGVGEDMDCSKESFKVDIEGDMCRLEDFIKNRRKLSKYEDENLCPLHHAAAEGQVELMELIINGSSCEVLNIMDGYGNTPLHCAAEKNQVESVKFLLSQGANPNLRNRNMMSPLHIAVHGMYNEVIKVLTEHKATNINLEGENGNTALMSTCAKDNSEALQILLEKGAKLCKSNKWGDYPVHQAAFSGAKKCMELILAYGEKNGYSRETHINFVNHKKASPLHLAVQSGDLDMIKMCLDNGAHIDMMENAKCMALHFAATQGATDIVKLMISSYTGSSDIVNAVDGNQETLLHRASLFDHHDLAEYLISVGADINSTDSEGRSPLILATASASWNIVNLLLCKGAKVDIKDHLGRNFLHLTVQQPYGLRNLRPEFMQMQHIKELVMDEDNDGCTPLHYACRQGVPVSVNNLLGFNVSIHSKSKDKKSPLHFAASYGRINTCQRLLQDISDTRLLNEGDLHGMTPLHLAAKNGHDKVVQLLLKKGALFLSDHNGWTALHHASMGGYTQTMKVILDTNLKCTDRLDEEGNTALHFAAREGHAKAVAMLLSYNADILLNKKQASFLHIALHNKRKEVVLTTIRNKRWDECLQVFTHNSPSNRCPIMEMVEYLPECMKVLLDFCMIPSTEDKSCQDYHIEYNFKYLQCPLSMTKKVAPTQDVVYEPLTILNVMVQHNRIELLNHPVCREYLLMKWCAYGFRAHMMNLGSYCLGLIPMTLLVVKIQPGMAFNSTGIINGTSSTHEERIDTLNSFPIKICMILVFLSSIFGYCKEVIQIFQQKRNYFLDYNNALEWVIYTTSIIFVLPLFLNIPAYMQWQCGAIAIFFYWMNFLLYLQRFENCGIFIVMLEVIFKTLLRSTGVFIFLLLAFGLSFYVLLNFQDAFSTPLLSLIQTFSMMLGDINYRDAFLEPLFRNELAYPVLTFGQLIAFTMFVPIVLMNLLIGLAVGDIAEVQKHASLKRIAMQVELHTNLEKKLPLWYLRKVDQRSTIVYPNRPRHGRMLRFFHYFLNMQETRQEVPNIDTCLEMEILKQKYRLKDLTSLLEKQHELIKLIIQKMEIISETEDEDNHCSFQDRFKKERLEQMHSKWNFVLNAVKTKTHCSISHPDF
Procedure: as §1, §2, §3, §4

TRPA1+ neurons [3] = test: Pharmacological stimulation of TRPA1+ neurons with polygodial in endotoxemic mice; TNF by ELISA; format: in vivo; conditions: TRPA1 KO mice; polygodial 5 mg/kg ip 30 min before endotoxin 0.1 mg/kg ip; collected after 90 min
Procedure: (§5) FIG. 2A-2D. […] A) Serum: wildtype mice received intraperitoneal administration of polygodial (5 mg/kg) (n=6) or vehicle (n=5). After 30 minutes, mice were subjected to endotoxemia (0.1 mg/kg endotoxin, i.p.). Blood was collected after 90 min and serum TNF levels were determined by ELISA. *p<0.05. B) Spleen: wildtype mice received intraperitoneal administration of polygodial (5 mg/kg) (n=7) or vehicle (n=6). After 30 minutes, mice were subjected to endotoxemia (0.1 mg/kg endotoxin, i.p.). Spleens were collected after 90 min and serum TNF levels were determined by ELISA. *p<0.05. C, D) Pharmacological Stimulation of TRPA1+ neurons fail to attenuate TNF levels in endotoxemic TRPA1 KO mice. C) Serum: TRPA1 KO mice received intraperitoneal administration of polygodial (5 mg/kg) (n=9) or vehicle (n=8). After 30 minutes, mice were subjected to endotoxemia (0.1 mg/kg endotoxin, i.p.). Blood was collected after 90 min and serum TNF levels were determined by ELISA. D) Spleen: TRPA1 KO mice received intraperitoneal administration of polygodial (5 mg/kg) (n=9) or vehicle (n=8). After 30 minutes, mice were subjected to endotoxemia (0.1 mg/kg endotoxin, i.p.). Spleens were collected after 90 min and serum TNF levels were determined by ELISA.

TRPA1+ neurons [4] = biological target: T2, TRPA1+ neurons (Mus musculus, UniProt Q8BLA8); test: as above; format: in vivo; conditions: wildtype mice; polygodial 5 mg/kg ip 30 min before endotoxin 0.1 mg/kg ip; collected after 90 min
T2 construct: from tissue; host or cells: living mice (wild type and TRPA1 KO), systemic i.p. dosing; TRPA1+ neurons
T2 sequence (Q8BLA8 whole entry): as above
Procedure: as §5

Compound: Cn1cnc2ncn(Cc3nc(CCc4ccc(Cl)cc4)no3)c(=O)c21 [AM0902, reference compound]
- Block of inward currents after IL-1β application (nodose ganglion neurons): completely blocked

Compound: Cc1cc(/C=C2/SC(=S)NC2=O)c(C)n1-c1cccnc1 [optovin]
- TNF levels in response to LPS [1]: no significant reductions in TNF levels
- TNF levels in response to LPS ([2]; proximally vagotomized mice, optovin + 405 nm light, LPS 8 mg/kg): no significant reduction in TNF levels
- TNF levels in response to LPS ([2]; wild type mice, optovin on vagus nerve, 405 nm light 5 min vs no light, LPS 8 mg/kg ip 2 h later, serum 1.5 h after LPS): significantly reduced TNF levels
- serum TNF levels ([2]; α7 nAChR KO mice, optovin + 405 nm light vs no light, LPS 8 mg/kg): did not significantly reduce serum TNF levels

Compound: CC1(C)CCC[C@]2(C)[C@@H](C=O)C(C=O)=CC[C@@H]12 [polygodial]
- TNF levels in serum (TRPA1+ neurons [3]): no significant reduction
- TNF levels in spleen (TRPA1+ neurons [3]): no significant reduction
- TNF levels in serum (TRPA1+ neurons [4]): attenuates TNF levels
- TNF levels in spleen (TRPA1+ neurons [4]): attenuates TNF levels
